Measured values: ChEMBL document CHEMBL5233265, “Recent advances in the design and development of formyl peptide receptor 2 (FPR2/ALX) agonists as pro-resolving agents with diverse therapeutic potential” (Eur J Med Chem, 2021)
Blank lines part the entries; values can stand above or below the molecule they belong to.

What was measured:
Type in all cases: cell-based
[1] = molecular target: T1, N-formyl peptide receptor 2 (Homo sapiens, UniProt P25090); experiment: Agonist activity at human FPR2 transfected in HL-60 cells assessed as increase in intracellular calcium flux incubated for 30 mins by Fluo-4 AM dye based fluorometer analysis
T1 sequence (P25090 whole entry): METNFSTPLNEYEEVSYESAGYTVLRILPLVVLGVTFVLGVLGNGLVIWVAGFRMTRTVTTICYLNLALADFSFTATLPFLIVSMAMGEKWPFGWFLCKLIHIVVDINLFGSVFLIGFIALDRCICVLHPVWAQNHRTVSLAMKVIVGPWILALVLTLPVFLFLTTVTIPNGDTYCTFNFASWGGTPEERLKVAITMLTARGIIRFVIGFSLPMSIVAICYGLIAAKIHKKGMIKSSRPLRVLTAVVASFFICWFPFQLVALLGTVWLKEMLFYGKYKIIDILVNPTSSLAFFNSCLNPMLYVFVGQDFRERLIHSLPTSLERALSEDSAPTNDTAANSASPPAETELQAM

[2] = molecular target: T2, fMet-Leu-Phe receptor (Homo sapiens, UniProt P21462); experiment: Agonist activity at human FPR1 transfected in HL-60 cells assessed as increase in intracellular calcium flux incubated for 30 mins by Fluo-4 AM dye based fluorometer analysis
T2 sequence (P21462 whole entry): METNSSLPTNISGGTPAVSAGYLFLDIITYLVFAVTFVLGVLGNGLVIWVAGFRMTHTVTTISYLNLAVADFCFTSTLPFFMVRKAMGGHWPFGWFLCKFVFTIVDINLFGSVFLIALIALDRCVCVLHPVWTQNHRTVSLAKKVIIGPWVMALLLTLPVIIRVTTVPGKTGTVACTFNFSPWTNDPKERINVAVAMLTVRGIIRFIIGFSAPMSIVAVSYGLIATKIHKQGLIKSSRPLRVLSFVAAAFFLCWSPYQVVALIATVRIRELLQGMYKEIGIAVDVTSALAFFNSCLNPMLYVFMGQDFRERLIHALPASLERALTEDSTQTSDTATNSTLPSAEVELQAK

[3] = molecular target: T1, N-formyl peptide receptor 2; experiment: Agonist activity at human FPR2 expressed in CHO cells assessed as cAMP level incubated for 1.5 hr by HTRF assay
[4] = molecular target: T2, fMet-Leu-Phe receptor; experiment: Agonist activity at human FPR1 expressed in CHO cells assessed as increase in calcium flux incubated for 50 mins by FLIPR calcium 5 dye based fluorescence assay
[5] = molecular target: T1, N-formyl peptide receptor 2; experiment: Agonist activity at human FPR2 expressed in CHO cells assessed as increase in calcium flux incubated for 50 mins by FLIPR calcium 5 dye based fluorescence assay
[6] = molecular target: T3, N-formyl peptide receptor 2 (Homo sapiens) (UniProt P25090); experiment: Agonist activity at human FPR2 transfected in HL-60 cells assessed as maximal intracellular calcium flux incubated for 30 mins by Fluo-4 AM dye based fluorometer analysis relative to control; settings: filed as agonist
T3 sequence (whole entry): T1 sequence (P25090 whole entry)

[7] = molecular target: T4, fMet-Leu-Phe receptor (Homo sapiens) (UniProt P21462); experiment: Agonist activity at FPR1 (unknown origin) expressed in CHO/Galpha16 cells assessed as maximal calcium flux at 0.61 to 10000 nM by FLIPR assay relative to control; settings: dose 0.61-10000 nM
T4 sequence (whole entry): T2 sequence (P21462 whole entry)

[8] = molecular target: T3, N-formyl peptide receptor 2 (Homo sapiens); experiment: Agonist activity at FPR2 (unknown origin) expressed in CHO/Galpha16 cells assessed as maximal calcium flux at 0.61 to 10000 nM by FLIPR assay relative to control; settings: dose 0.61-10000 nM
[9] = species: Homo sapiens; experiment: Selectivity index, ratio of EC50 for agonist activity at FPR2 (unknown origin) expressed in CHO/Galpha16 cells to EC50 for FPR1 (unknown origin) expressed in CHO/Galpha16 cells
[10] = molecular target: T2, fMet-Leu-Phe receptor; experiment: Agonist activity at FPR1 (unknown origin) expressed in CHO/Galpha16 cells assessed as increase in calcium flux by FLIPR assay
[11] = molecular target: T1, N-formyl peptide receptor 2; experiment: Agonist activity at FPR2 (unknown origin) expressed in CHO/Galpha16 cells assessed as increase in calcium flux by FLIPR assay
[12] = molecular target: T2, fMet-Leu-Phe receptor; experiment: Agonist activity at human FPR1 expressed in CHO cells assessed as cAMP level incubated for 1.5 hr by HTRF assay; settings: cho

SMILES: O=C(Nc1ccc(C(F)(F)F)cc1)N[C@H]1CCCN(c2ccc(-c3ccccc3F)cc2)C1=O
- EC50 [3]: 40 nM

SMILES: COc1cc(F)c([C@H]2CCN(CCC(F)F)C[C@@H]2NC(=O)Nc2ccc(Cl)cc2)c(F)c1 (relative stereo; form 2)
- EC50 ([4]; cho): 1 nM
- EC50 [5]: < 1 nM

SMILES: COc1ccc(NC(=O)N[C@@H](Cc2ccc(C#N)cc2)C(=O)NCC2(c3ccc(O)cc3)CC2)cc1
- EC50 ([1]; read-out: EC50): 1600 nM
- EC50 ([2]; read-out: EC50): 1300 nM
- Emax [6]: 75%

SMILES: CN1CCN(c2ccc(N3CCC[C@@H](NC(=O)Nc4ccc(C(F)(F)F)cc4)C3=O)cc2)CC1
- EC50 [3]: 10 nM

SMILES: CC(C)C(C(=O)O)C(C)NC(=O)Nc1ccc(Br)cc1 (stereo in doubt; 21) [listing 1 of 2 here]
- EC50 [10]: 1.7 nM
- EC50 [11]: 25 nM

SMILES: NC(=O)c1ccccc1-c1ccc(N2CCC[C@H](NC(=O)Nc3ccc(C(F)(F)F)cc3)C2=O)cc1
- EC50 [3]: 40 nM

SMILES: CS(=O)(=O)Nc1ccccc1-c1ccc(N2CCC[C@@H](NC(=O)Nc3ccc(C(F)(F)F)nc3)C2=O)cc1
- EC50 [3]: < 5 nM
- EC50 [12]: Not Active

SMILES: CS(=O)(=O)Nc1ccccc1-c1ccc(N2CCC[C@@H](NC(=O)Nc3cnc(Cl)cn3)C2=O)cc1
- EC50 [3]: < 5 nM
- EC50 [12]: Not Active

SMILES: CC(C)C(C(=O)O)C(C)NC(=O)Nc1ccc(Br)cc1 (stereo in doubt; 21) [listing 2 of 2 here]
- Emax [7]: 93%

SMILES: CC(C)C(C(=O)O)C(C)NC(=O)Nc1ccc(Br)cc1 (stereo in doubt; 19) [listing 2 of 2 here]
- EC50 [10]: 13 nM
- EC50 [11]: 3240 nM

SMILES: O=C(Nc1ccc(C(F)(F)F)cc1)NC1CCCN(c2ccc(-c3ccccc3F)cc2)C1=O (racemic)
- EC50 [3]: < 5 nM

SMILES: NC(=O)c1ccccc1-c1ccc(N2CCC[C@@H](NC(=O)Nc3ccc(Cl)cc3)C2=O)cc1
- EC50 [3]: < 5 nM

SMILES: O=C(Nc1ccccc1F)N[C@@H]1CCCN(c2ccc(-c3ccccc3F)cc2)C1=O
- EC50 [3]: 40 nM

More lines, main results first:

- EC50 ([1]; hl-60): Not Active
- EC50 ([2]; hl-60): Not Active
SMILES: N#Cc1ccc(C[C@@H](NC(=O)Nc2ccc(O)cc2)C(=O)NCC2(c3ccccc3)CC2)cc1

- EC50 ([1]; hl-60): Not Active
- EC50 ([2]; hl-60): Not Active
SMILES: N#Cc1ccc(C[C@H](NC(=O)Nc2ccc(O)cc2)C(=O)NCC2(c3ccccc3)CC2)cc1

- Emax [7]: 103%
- Emax [8]: 56%
SMILES: CC(C)C(C(=O)O)C(C)NC(=O)Nc1ccc(Br)cc1 (stereo in doubt; 19) [listing 1 of 2 here]
- Ratio EC50 [9]: 249

- EC50 [3]: 40 nM
SMILES: NC(=O)c1ccccc1-c1ccc(N2CCCC(NC(=O)Nc3ccc(C(F)(F)F)cc3)C2=O)cc1 (racemic)

- Emax [7]: 100%
- Emax [8]: 91%
SMILES: CC(C)C[C@H](NC(=O)CNC(=O)Nc1ccc(Br)cc1)C(=O)O
- Ratio EC50 [9]: 386

- EC50 [3]: < 10 nM
- EC50 [12]: Not Active
SMILES: COc1cc(F)c([C@@H]2CN(CC3CC3)C(=O)[C@H]2NC(=O)NC2(c3cccc(C)n3)CC2)c(F)c1

- EC50 [3]: < 10 nM
SMILES: O=C(Nc1ccc(C(F)(F)F)cc1)N[C@@H]1CCCN(c2ccc(N3CCOCC3)cc2)C1=O

- EC50 [3]: 5 nM
SMILES: O=C(Nc1ccc(C(F)(F)F)cc1)N[C@@H]1CCCN(c2ccc(-c3ccccc3C(=O)O)cc2)C1=O

- Emax [7]: 94%
- Emax [8]: 89%
SMILES: CC(C)C(C(=O)O)C(C)NC(=O)Nc1ccc(Br)cc1 (stereo in doubt; 18)
- Ratio EC50 [9]: 17

- EC50 ([1]; read-out: EC50): 7000 nM
- EC50 ([2]; hl-60): Not Active
- Emax [6]: 70%
SMILES: COc1ccc(NC(=O)N[C@H](Cc2ccc(C#N)cc2)C(=O)NCC2(c3ccc(O)cc3)CC2)cc1

- EC50 [3]: 40 nM
SMILES: O=C(Nc1ccc(C(F)(F)F)cc1)N[C@H]1CCCN(c2ccc(-c3ccccc3C(=O)O)cc2)C1=O

- EC50 [4]: 1 nM
- EC50 [5]: 1 nM
SMILES: COc1ccc([C@H]2CCN(c3ccnnc3)C[C@@H]2NC(=O)Nc2ccc(Cl)cc2)cc1 (relative stereo)

- EC50 [10]: 98 nM
- EC50 [11]: 9940 nM
SMILES: CC(C)C(C(=O)O)C(C)NC(=O)Nc1ccc(Br)cc1 (stereo in doubt; 20)

- EC50 [5]: < 1 nM
SMILES: COc1ccc([C@H]2CCNC(=O)[C@@H]2NC(=O)Nc2ccc(Cl)cc2)cc1
